Tests used:
liver [1] = test: Rat liver visualized by laser excitation light delivered by fiber optics through a laparoscope; format: in vivo; conditions: male Sprague-Dawley rat
mammals = conditions: used in mammals; cited from earlier work
[2] = cited from earlier work
liver [3] = test: Liver visualization by fluorescent dye in adult pig model after RF thermal ablation (SPY imaging system); format: in vivo; conditions: intravenous bolus, liver subjected to RF ablation

Compound: CC1(C)C(/C=C/C=C/C=C/C=C2\N(CCCCS(=O)(=O)O)c3ccc4ccccc4c3C2(C)C)=[N+](CCCCS(=O)(=O)[O-])c2ccc3ccccc3c21 [ICG, indocyanine green]
- fluorescence of liver under laparoscopic laser excitation (liver [1]): The brightly fluorescing structure is the liver
- toxicity in mammals (mammals): low evidence of toxicity
- distribution ([2]; after intravenous injection, with normal vascular permeability): remains intravascular
- metabolism ([2]; in the body): not metabolized in the body
- enterohepatic recirculation ([2]; in vivo): does not undergo enterohepatic recirculation
- excretion route ([2]; in vivo): excreted exclusively by the liver
- intestinal reabsorption ([2]; in vivo): not reabsorbed from the intestine
- fluorescence of liver tissue (perfusion) under laser excitation (liver [3]): The lighter areas to the right and bottom sides of the photos indicate normal liver tissue

Compound: Fast Blue
- toxicity in mammals (mammals): low evidence of toxicity

Compound: N=C(N)c1ccc(/C=C/c2ccc(C(=N)N)cc2O)cc1 [Fluorogold]
- toxicity in mammals (mammals): low evidence of toxicity

— patent publication US20080249400A1, “Intraoperative Imaging Of Hepatobiliary Structures” (University of Rochester Medical Center, priority 2006, published 2008)
